For four compounds, logD results are on record in ChEMBL document CHEMBL4732270, “Cell Permeability of Isomeric Macrocycles: Predictions and NMR Studies” (ACS Med Chem Lett, 2021).

This data set in a line: Lipophilicity, log D of compound at pH 7.4 by UPLC-MS/MS analysis. It is filed as physicochemical. The following applies: buffer.
For `COC(=O)[C@@H]1CSCc2ccccc2C(=O)OC[C@H](NC(=O)[C@@H]2CCCN2C(C)=O)CN1`, the pH-dependent lipophilicity (logD) is 0.7. Consider `COC(=O)[C@H]1CSCc2ccccc2C(=O)OC[C@H](NC(=O)[C@@H]2CCCN2C(C)=O)CN1`, for which the logD turned out to be 0.65. Next, `COC(=O)[C@@H]1CSCc2ccccc2C(=O)OC[C@@H](NC(=O)[C@@H]2CCCN2C(C)=O)CN1`: 0.43; `COC(=O)[C@H]1CSCc2ccccc2C(=O)OC[C@@H](NC(=O)[C@@H]2CCCN2C(C)=O)CN1`: 0.6.

The term logD denotes the decadic logarithm of the distribution of all forms, ionised or not, between an organic phase and buffer at a given pH. A high value points to a more lipophilic compound.
